{"source": "patent US10112978B2", "about": "“Peptide and use thereof” (OSAKA UNIVERSITY, priority 2014, dated 2018)", "key": {"[1]": {"tested_on": "PMA-differentiated THP-1 cells", "assay": "Cytokine and chemokine production in PMA-differentiated THP-1 cells (ELISA)", "type": "cell-based, human", "procedure": "THP-1 cells were suspended at 5×10^5 cells/mL in RPMI1640 medium containing 50 ng/mL PMA (phorbol 12-myristate 13-acetate) and 10% FBS, and seeded at 5×10^5 cells/well on a 24-well plate. The cells were cultured in a CO2 incubator for 2 days for differentiation into macrophages. After the 2-day culture, the medium was removed, an OSK-1 solution in RPMI1640 medium containing 10% FBS was added to the wells, and overnight culture was performed. Sixteen hours after the addition, the culture supernatant was harvested, and the cytokine concentrations in the supernatant were measured by ELISA.\nThe experiment in this example was performed in the same manner as in Example 3, and the IL-1β, IL-18, TNFα, IL-6, RANTES, MIP-1α and MIP-1β concentrations in the culture supernatant were measured."}, "C57BL/6 mice": {"tested_on": "C57BL/6 mice", "assay": "Induction of WT1-specific immunity in mice (ELISpot of splenocytes)", "type": "in vivo", "settings": "group (3): WT1 peptide 15 μg/mouse + OSK-1 100 μg/mouse, once a week for 4 weeks", "procedure": "The OSK-1 peptide and a WT1 peptide were conjugated via ε-Acp as a spacer to form an “OSK-1-WT1 conjugate vaccine”. The OSK-1-WT1 conjugate vaccine was evaluated for the ability to induce WT1-specific immunity in mice. Mice were divided into the following 5 groups (3 animals per group): (1) physiological saline, (2) WT1 peptide (15 μg/mouse)+Incomplete Freund's Adjuvant (IFA, SIGMA; Cat#F5506, 50 μL/mouse), (3) WT1 peptide (15 μg/mouse)+OSK-1 (100 μg/mouse), (4) OSK-1-WT1 conjugate vaccine (50 μg/mouse), and (5) OSK-1-WT1 conjugate vaccine (300 μg/mouse). In each group, the test substance was administered to C57BL/6 mice once a week for 4 weeks. At 2 weeks after the 4th administration, the spleen was excised from each immunized mouse, and the ELISpot assay was performed. The specific procedure is as follows. Splenocytes were prepared from the excised spleen and seeded on a filter plate coated with an anti-IL-4 antibody or an anti-IFNγ antibody. The WT1 peptide or the OSK-1-WT1 peptide was added to the wells, and the splenocytes were cultured for 3 days. After that, each well of the filter plate was stained and the spots of IL-4- or IFNγ-producing cells was counted."}, "inflammasomes": {"tested_on": "inflammasomes", "assay": "Inflammasome activation: IL-1β production in THP-1 cells with or without LPS priming, cathepsin B inhibitor or caspase-1 inhibitor", "type": "cell-based, human", "procedure": "THP-1 cells were suspended at 1×10^6 cells/mL in RPMI1640 medium containing 1 μg/mL LPS and 10% FBS, and incubated in a CO2 incubator for 3 hours for cell priming. The cell suspension was centrifugated, the cells were resuspended at 1×10^6 cells/mL in RPMI1640 medium containing 10% FBS, and the cell suspension was added to a 96-well plate at 100 μL/well. The cathepsin B inhibitor Ca-074-Me (final concentration: 10 μM), the caspase-1 inhibitor Z-YVAD-FMK (final concentration: 10 μM) or the medium was added to the wells. After that, OSK-1 or the medium was added to the wells, and the cells were cultured in a CO2 incubator. After 16 hours, the culture supernatant was harvested, and the cytokine concentrations in the supernatant were measured by ELISA."}, "NFκB": {"tested_on": "NFκB", "assay": "Activation of NFκB in THP-1 cells (TNFα production with or without NFκB inhibitors)", "type": "cell-based, human", "settings": "for production of TNFα: OSK-1 100 ng/mL", "procedure": "THP-1 cells were diluted to 5×10^5 cells in 500 μL of RPMI1640 medium containing 10% FBS, and the cell suspension was added to a 24-well plate at 500 μL/well. QNZ (Enzo, final concentration: 10 μM) in RPMI1640 medium containing 10% FBS, BAY11-7082 (Enzo, final concentration: 10 μM) in RPMI1640 medium containing 10% FBS and RPMI1640 medium containing 10% FBS were added to the plate, and the cells were cultured for 2.5 hours. OSK-1 was added to the wells at a final concentration of 100 ng/mL, and the cells were cultured for 2 hours. After that, the culture supernatant was harvested, and the TNFα concentration in the supernatant was measured by ELISA."}, "LPS-primed THP-1 cells": {"tested_on": "LPS-primed THP-1 cells", "assay": "Cytokine production in LPS-primed THP-1 cells (ELISA of culture supernatant)", "type": "cell-based, human", "procedure": "Human monocyte cell line THP-1 (JCRB registration number: JCRB0112) was suspended at 1×10^6 cells/mL in RPMI1640 medium containing 1 μg/mL lipopolysaccharide (LPS) and 10% FBS, and incubated in a CO2 incubator for 3 hours for cell priming. The cell suspension was centrifugated, the cells were resuspended at 1×10^6 cells/mL in RPMI1640 medium containing 10% FBS, and the cell suspension was added to a 24-well plate at 500 μL/well. An OSK-1 solution was prepared at a 2-fold higher concentration than the final concentration in RPMI1640 medium containing 10% FBS and added to the plate at 500 μL/well. After about 16 hours, the culture supernatant was harvested, and the cytokine concentrations in the supernatant were measured by ELISA.\nTHP-1 cells were suspended at 1×10^6 cells/mL in RPMI1640 medium containing 1 μg/mL LPS and 10% FBS, and incubated in a CO2 incubator for 3 hours for cell priming. The cell suspension was centrifugated, the cells were resuspended at 1×10^6 cells/mL in RPMI1640 medium containing 10% FBS, and the cell suspension was added to a 24-well plate at 500 μL/well. […] After about 16 hours, the culture supernatant was harvested, and the cytokine concentrations in the supernatant were measured by ELISA."}, "[2]": {"settings": "compared with alum or the CpG nucleotide"}}, "data": [{"sequence": "ELKLIFLHRLKRLRKRLKRK (Ac-ELKLIFLHRLKRLRKRLKRK-NH2) [OSK-1]", "values": [{"measurement": "production of the chemokines and cytokines (IL-1β, IL-18, TNFα, IL-6, RANTES, MIP-1α and MIP-1β)", "setting": "[1]; Example 11, ELISA", "result": "induced the production of the chemokines and cytokines in the PMA-differentiated THP-1 cells in an OSK-1 concentration dependent manner"}, {"measurement": "production of the cytokines (IL-1β, IL-18, TNFα and IL-6 concentrations in the culture supernatant)", "setting": "[1]; OSK-1 at 30 μg/mL, 16 hours, ELISA", "result": "strongly induced the production of the cytokines"}, {"measurement": "IFNγ-producing cells in response to stimulation with the WT1 peptide (ELISpot)", "setting": "C57BL/6 mice", "result": "more cells produced IFNγ in response to the stimulation with the WT1 peptide"}, {"measurement": "IL-1β production", "setting": "inflammasomes; LPS-primed THP-1 cells versus non-primed THP-1 cells, 16 hours", "result": "induced the production of IL-1β only in the LPS-primed THP-1 cells"}, {"measurement": "IL-1β production", "setting": "inflammasomes; LPS-primed THP-1 cells, in the presence of caspase-1 inhibitor Z-YVAD-FMK 10 μM", "result": "also inhibited by Z-YVAD-FMK"}, {"measurement": "IL-1β production", "setting": "inflammasomes; LPS-primed THP-1 cells, in the presence of cathepsin B inhibitor Ca-074-Me 10 μM", "result": "inhibited by Ca-074-Me"}, {"measurement": "production of TNFα", "setting": "NFκB; 2 hours", "result": "induced the production of TNFα"}, {"measurement": "production of TNFα", "setting": "NFκB; in the presence of NFκB inhibitor BAY11-7082 10 μM", "result": "inhibited in the presence of the NFκB inhibitor QNZ or BAY11-7082"}, {"measurement": "production of TNFα", "setting": "NFκB; in the presence of NFκB inhibitor QNZ 10 μM", "result": "inhibited in the presence of the NFκB inhibitor QNZ"}, {"measurement": "activating NFκB", "setting": "NFκB; concluded from TNFα production with and without NFκB inhibitors", "result": "effective for activating NFκB"}, {"measurement": "production of the cytokines (IL-1β, IL-18, TNFα and IL-6 concentrations in the culture supernatant)", "setting": "LPS-primed THP-1 cells; about 16 hours, ELISA", "result": "induce the production of the cytokines in the LPS-primed THP-1 cells in an OSK-1 concentration dependent manner"}, {"measurement": "production of IL-1β", "setting": "LPS-primed THP-1 cells; [2]", "result": "more strongly induced"}, {"measurement": "production of TNFα", "setting": "LPS-primed THP-1 cells; [2]", "result": "more strongly induced"}]}]}
